28 molecules from patent US7473790B2 (Pfizer Inc., priority 2003, dated 2009) can be followed below.

By IC50 is commonly meant the point on the concentration scale where inhibition reaches its midpoint.

T1 sequence (P26663 2420-3010): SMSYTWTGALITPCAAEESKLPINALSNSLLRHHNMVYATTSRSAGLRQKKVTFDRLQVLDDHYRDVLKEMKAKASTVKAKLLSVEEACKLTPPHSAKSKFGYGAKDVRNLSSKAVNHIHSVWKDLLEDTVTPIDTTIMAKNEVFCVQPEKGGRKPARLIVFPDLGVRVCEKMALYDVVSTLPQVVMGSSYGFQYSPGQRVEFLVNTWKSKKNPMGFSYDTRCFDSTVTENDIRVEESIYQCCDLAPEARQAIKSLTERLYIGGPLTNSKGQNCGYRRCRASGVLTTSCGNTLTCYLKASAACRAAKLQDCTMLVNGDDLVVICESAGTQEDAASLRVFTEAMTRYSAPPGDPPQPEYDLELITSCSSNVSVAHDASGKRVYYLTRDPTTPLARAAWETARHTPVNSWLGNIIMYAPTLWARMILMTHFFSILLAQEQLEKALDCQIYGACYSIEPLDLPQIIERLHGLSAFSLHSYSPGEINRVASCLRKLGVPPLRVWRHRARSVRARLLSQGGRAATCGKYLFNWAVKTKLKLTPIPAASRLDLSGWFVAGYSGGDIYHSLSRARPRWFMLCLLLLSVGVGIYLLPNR

The assay addresses T1, HCV polymerase (Hepatitis C virus genotype 1b, UniProt P26663).
T1 construct: 2.5 pmoles (0.15 μg) HCV polymerase protein in a final volume of 75 μL
As to the kind of experiment: HCV polymerase primer/template-directed transcription assay (32P-GTP incorporation, filter binding). It is filed as biochemical. The conditions noted are these: recombinant HCV polymerase; 30 minutes at 30° C.; concentration giving 50% inhibition of polymerase-directed transcription; read-out: IC50. In short, it runs like this:
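Recombinant genotype 1b polymerase (30 nM) extended biotin-dG12 primer on poly(rC)300 template with 1 μM GTP plus α-32P-GTP, pH 7.2, 10 mM MgCl2, 30 min at 30° C, 1% DMSO final. Products captured on DE filters and counted. IC50 fitted from triplicate cpm, with a tight-binding correction applied below 200 nM.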
As for `CC(C)(C#N)c1ccc(CCC2(C3CCCC3)CC(O)=C(Cc3cn4cccnc4n3)C(=O)O2)cc1F` (stereo not shown) [A(221), 2-(4-{2-[2-cyclopentyl-4-hydroxy-5-(imidazo[1,2-a]pyrimidin-2-ylmethyl)-6-oxo-3,6-dihydro-2H-pyran-2-yl]ethyl}-2-fluorophenyl)-2-methylpropanenitrile], the IC50 stood at 14 nM.

`CC(C)(C#N)c1ccc(CCC2(C3CCCC3)CC(O)=C(Cc3cnc4ncccn34)C(=O)O2)cc1F` (stereo not shown) [A(222), 2-(4-{2-[2-cyclopentyl-4-hydroxy-5-(imidazo[1,2-a]pyrimidin-3-ylmethyl)-6-oxo-3,6-dihydro-2H-pyran-2-yl]ethyl}-2-fluorophenyl)-2-methylpropanenitrile]: the IC50 amounted to 120 nM.

As to `Cc1cnc2nc(CC3=C(O)CC(CCc4ccc(O)c(CC(F)(F)F)c4)(C4CCCC4)OC3=O)nn2c1` (stereo not shown) [A(224), 6-cyclopentyl-4-hydroxy-6-{2-[4-hydroxy-3-(2,2,2-trifluoroethyl)phenyl]ethyl}-3-[(6-methyl[1,2,4]triazolo[1,5-a]pyrimidin-2-yl)methyl]-5,6-dihydro-2H-pyran-2-one], the IC50 came to 4 nM.

With `Cc1cc(C)n2nc(CC3=C(O)CC(CCc4ccc(O)c(CC(F)(F)F)c4)(C4CCCC4)OC3=O)nc2n1` (stereo not shown) [A(225), 6-cyclopentyl-3-[(5,7-dimethyl[1,2,4]triazolo[1,5-a]pyrimidin-2-yl)methyl]-4-hydroxy-6-{2-[4-hydroxy-3-(2,2,2-trifluoroethyl)phenyl]ethyl}-5,6-dihydro-2H-pyran-2-one], the IC50 turned out to be 3 nM.

In the case of `O=C1CC(=O)OC(CCc2ccc(O)c(CC(F)(F)F)c2)(C2CCCC2)C1` (stereo not shown) [A(228), 6-cyclopentyl-6-{2-[4-hydroxy-3-(2,2,2-trifluoroethyl)phenyl]ethyl}dihydro-2H-pyran-2,4(3H)-dione], the IC50 came out at 470 nM.

Consider `CCc1cc(CCC2(C3CCCC3)CC(O)=C(Cc3nc4nc(C)ccn4n3)C(=O)O2)ccc1O` (stereo not shown) [A(229), 6-cyclopentyl-6-[2-(3-ethyl-4-hydroxyphenyl)ethyl]-4-hydroxy-3-[(5-methyl[1,2,4]triazolo[1,5-a]pyrimidin-2-yl)methyl]-5,6-dihydro-2H-pyran-2-one], for which the 50% inhibitory concentration (IC50) is 10 nM.

Turning to `CCc1cc(CCC2(C3CCCC3)CC(O)=C(Cc3nc4ncc(Br)cn4n3)C(=O)O2)ccc1O` (stereo not shown) [A(230), 3-[(6-bromo[1,2,4]triazolo[1,5-a]pyrimidin-2-yl)methyl]-6-cyclopentyl-6-[2-(3-ethyl-4-hydroxyphenyl)ethyl]-4-hydroxy-5,6-dihydro-2H-pyran-2-one], the IC50 was 11 nM.

Turning to `CCc1cc(CCC2(C3CCCC3)CC(O)=C(Cc3nc4ncc(Cl)cn4n3)C(=O)O2)cc(CC)c1O` (stereo not shown) [A(231), 3-[(6-chloro[1,2,4]triazolo[1,5-a]pyrimidin-2-yl)methyl]-6-cyclopentyl-6-[2-(3,5-diethyl-4-hydroxyphenyl)ethyl]-4-hydroxy-5,6-dihydro-2H-pyran-2-one], the IC50 was 6 nM.

As for `CCc1cc(CCC2(C3CCCC3)CC(O)=C(Cc3nc4nc(C)cc(C)n4n3)C(=O)O2)cc(CC)c1O` (stereo not shown) [A(232), 6-cyclopentyl-6-[2-(3,5-diethyl-4-hydroxyphenyl)ethyl]-3-[(5,7-dimethyl[1,2,4]triazolo[1,5-a]pyrimidin-2-yl)methyl]-4-hydroxy-5,6-dihydro-2H-pyran-2-one], the IC50 was found to be 4 nM.

As for `CCc1cc(CCC2(C3CCCC3)CC(O)=C(Cc3nc4ncc(C)cn4n3)C(=O)O2)cc(CC)c1O` (stereo not shown) [A(233), 6-cyclopentyl-6-[2-(3,5-diethyl-4-hydroxyphenyl)ethyl]-4-hydroxy-3-[(6-methyl[1,2,4]triazolo[1,5-a]pyrimidin-2-yl)methyl]-5,6-dihydro-2H-pyran-2-one], the concentration for half-maximal inhibition (IC50) was 11 nM.

Regarding `CCc1cc(CCC2(C3CCCC3)CC(O)=C(Cc3nc4ncccn4n3)C(=O)O2)cc(CC)c1O` (stereo not shown) [A(234), 6-cyclopentyl-6-[2-(3,5-diethyl-4-hydroxyphenyl)ethyl]-4-hydroxy-3-([1,2,4]triazolo[1,5-a]pyrimidin-2-ylmethyl)-5,6-dihydro-2H-pyran-2-one], the IC50 was 11 nM.

For the molecule `CCc1cc(CCC2(C3CCCC3)CC(=O)CC(=O)O2)cc(CC)c1O` (stereo not shown) [A(235), 6-cyclopentyl-6-[2-(3,5-diethyl-4-hydroxyphenyl)ethyl]dihydro-2H-pyran-2,4(3H)-dione], the IC50 amounted to 890 nM.

As to `Cc1cc(C)n2nc(CC3=C(O)CC(CCc4ccc(C5(C#N)CCC5)c(F)c4)(C4CCCC4)OC3=O)nc2n1` (stereo not shown) [A(236), 1-(4-{2-[2-Cyclopentyl-5-(5,7-dimethyl-[1,2,4]triazolo[1,5-a]pyrimidin-2-ylmethyl)-4-hydroxy-6-oxo-3,6-dihydro-2H-pyran-2-yl]-ethyl}-2-fluoro-phenyl)-cyclobutanecarbonitrile], the IC50 amounted to 3 nM.

Turning to `N#CC1(c2ccc(CCC3(C4CCCC4)CC(=O)CC(=O)O3)cc2F)CCC1` (stereo not shown) [A(237), 1-{4-[2-(2-Cyclopentyl-4,6-dioxo-tetrahydro-pyran-2-yl)-ethyl]-2-fluoro-phenyl}-cyclobutanecarbonitrile], the IC50 came out at 1000 nM.

As for `N#CC1(c2ccc(CCC3(C4CCCC4)CC(O)=C(Cc4nc5ncccn5n4)C(=O)O3)cc2F)CCC1` (stereo not shown) [A(238), 1-{4-[2-(2-Cyclopentyl-4-hydroxy-6-oxo-5-[1,2,4]triazolo[1,5-a]pyrimidin-2-ylmethyl-3,6-dihydro-2H-pyran-2-yl)-ethyl]-2-fluoro-phenyl}-cyclobutanecarbonitrile], the IC50 was 10 nM.

As for `Cc1cnc2nc(CC3=C(O)CC(CCc4ccc(C5(C#N)CCC5)c(F)c4)(C4CCCC4)OC3=O)nn2c1` (stereo not shown) [A(239), 1-(4-{2-[2-Cyclopentyl-4-hydroxy-5-(6-methyl-[1,2,4]triazolo[1,5-a]pyrimidin-2-ylmethyl)-6-oxo-3,6-dihydro-2H-pyran-2-yl]-ethyl}-2-fluoro-phenyl)-cyclobutanecarbonitrile], the IC50 came out at 3 nM.

As for `Cc1cnc2nc(CC3=C(O)CC(CCc4ccc(C(C)C#N)c(F)c4)(C4CCCC4)OC3=O)nn2c1` (stereo not shown) [A(240), 2-(4-{2-[2-Cyclopentyl-4-hydroxy-5-(6-methyl-[1,2,4]triazolo[1,5-a]pyrimidin-2-ylmethyl)-6-oxo-3,6-dihydro-2H-pyran-2-yl]-ethyl}-2-fluoro-phenyl)-propionitrile], the IC50 came out at 9 nM.

As for `CC(C#N)c1ccc(CCC2(C3CCCC3)CC(=O)CC(=O)O2)cc1F` (stereo not shown) [A(241), 2-{4-[2-(2-Cyclopentyl-4,6-dioxo-tetrahydro-pyran-2-yl)-ethyl]-2-fluoro-phenyl}-propionitrile], the IC50 stood at 800 nM.

Consider `CCc1cnc2nc(CC3=C(O)CC(CCc4cc(F)c(C(C)(C)C#N)c(F)c4)(C4CCCC4)OC3=O)nn2c1` (stereo not shown) [A(252), 2-(4-{2-[2-Cyclopentyl-5-(6-ethyl-[1,2,4]triazolo[1,5-a]pyrimidin-2-ylmethyl)-4-hydroxy-6-oxo-3,6-dihydro-2H-pyran-2-yl]-ethyl}-2,6-difluoro-phenyl)-2-methyl-propionitrile], for which the IC50 came to 10 nM.

With `Cc1ccn2nc(CC3=C(O)CC(CCc4cc(F)c(C(C)(C)C#N)c(F)c4)(C4CCCC4)OC3=O)nc2n1` (stereo not shown) [A(253), 2-(4-{2-[2-Cyclopentyl-4-hydroxy-5-(5-methyl-[1,2,4]triazolo[1,5-a]pyrimidin-2-ylmethyl)-6-oxo-3,6-dihydro-2H-pyran-2-yl]-ethyl}-2,6-difluoro-phenyl)-2-methyl-propionitrile], the IC50 was determined as 6 nM.

Take `Cc1cnc2nc(CC3=C(O)CC(CCc4cc(F)c(C5(C#N)CC5)c(F)c4)(C4CCCC4)OC3=O)nn2c1` (stereo not shown) [A(254)]: the IC50 is 12 nM.

Regarding `N#CC1(c2c(F)cc(CCC3(C4CCCC4)CC(=O)CC(=O)O3)cc2F)CC1` (stereo not shown) [A(255), 1-{4-[2-(2-Cyclopentyl-4,6-dioxo-tetrahydro-pyran-2-yl)-ethyl]-2,6-difluoro-phenyl}-cyclopropanecarbonitrile], the IC50 stood at 1900 nM.

In the case of `COc1cc(C(C)(C)C#N)c(F)cc1CCC1(C2CCCC2)CC(O)=C(Cc2nc3ncc(C)cn3n2)C(=O)O1` (stereo not shown) [A(261), 2-(4-{2-[2-Cyclopentyl-4-hydroxy-5-(6-methyl-[1,2,4]triazolo[1,5-a]pyrimidin-2-ylmethyl)-6-oxo-3,6-dihydro-2H-pyran-2-yl]-ethyl}-2-fluoro-5-methoxy-phenyl)-2-methyl-propionitrile], the IC50 stood at 4 nM.

With `CCNC(=O)C(C)(C)c1ccc(CCC2(C3CCCC3)CC(O)=C(Cc3nc4ncc(C)cn4n3)C(=O)O2)cc1F` (stereo not shown) [A(268), 2-(4-{2-[2-Cyclopentyl-4-hydroxy-5-(6-methyl-[1,2,4]triazolo[1,5-a]pyrimidin-2-ylmethyl)-6-oxo-3,6-dihydro-2H-pyran-2-yl]-ethyl}-2-fluoro-phenyl)-N-ethyl-isobutyramide], the IC50 stood at 680 nM.

Regarding `Cc1cnc2nc(CC3=C(O)CC(CCc4ccc(C(C)(C)CO)c(F)c4)(C4CCCC4)OC3=O)nn2c1` (stereo not shown) [A(269), 6-Cyclopentyl-6-{2-[3-fluoro-4-(2-hydroxy-1,1-dimethyl-ethyl)-phenyl]-ethyl}-4-hydroxy-3-(6-methyl-[1,2,4]triazolo[1,5-a]pyrimidin-2-ylmethyl)-5,6-dihydro-pyran-2-one], the IC50 came out at 26 nM.

Turning to `COC(=O)C(C)(C)c1ccc(CCC2(C3CCCC3)CC(O)=C(Cc3nc4ncc(C)cn4n3)C(=O)O2)cc1F` (stereo not shown) [A(270), 2-(4-{2-[2-Cyclopentyl-4-hydroxy-5-(6-methyl-[1,2,4]triazolo[1,5-a]pyrimidin-2-ylmethyl)-6-oxo-3,6-dihydro-2H-pyran-2-yl]-ethyl}-2-fluoro-phenyl)-2-methyl-propionic acid methyl ester], the IC50 worked out at 37 nM.

As for `COc1ccc(CCC2(C3CCCC3)CC(O)=C(Cc3nc4nc(C)cc(C)n4n3)C(=O)O2)cc1F` (stereo not shown) [B(01)], the IC50 was 15 nM.

As for `CCOc1ccc(CCC2(C3CCCC3)CC(O)=C(Cc3nc4nc(C)cc(C)n4n3)C(=O)O2)cc1F` (stereo not shown) [B(02), 6-Cyclopentyl-3-(5,7-dimethyl-[1,2,4]triazolo[1,5-a]pyrimidin-2-ylmethyl)-6-[2-(4-ethoxy-3-fluoro-phenyl)-ethyl]-4-hydroxy-5,6-dihydro-pyran-2-one], the IC50 amounted to 27 nM.
